Source: patent publication US8546434B2, “Triazole compounds as KSP inhibitors” (Novartis AG, priority 2010, dated 2013)

target: motor domain of human KSP (Eg 5, KNSL1) (Homo sapiens (Human), UniProt P52732); test: Assay for determining KSP activity (microtubule-stimulated ATPase, Biomol Green phosphate detection); format: biochemical; settings: KSP motor domain 3 nM, bovine brain microtubules 50 μg/mL, 2 hours at RT, absorbance at 650 nm; read-out: Biological Activity (IC50)
Experimental: This example provides a representative in vitro assay for determining KSP activity in vitro. Purified microtubules obtained from bovine brain were purchased from Cytoskeleton Inc. (Denver, Colo., USA). The motor domain of human KSP (Eg 5, KNSL1) was cloned, expressed, and purified to greater than 95% homogeneity. Biomol Green was purchased from BIOMOL International L.P. (Plymouth Meeting, Pa., USA). The microtubules were rapidly thawed at 37° C. for 10 minutes before making dilution. Microtubules and KSP motor protein (i.e., the KSP motor domain) were diluted in assay buffer (20 mM Tris-HCl (pH 7.5), 1 mM MgCl2, 10 mM DTT and 0.125% BSA) to a final concentration of 50 μg/mL microtubules and 3 nM KSP.
To each well of the testing plate (96-well half area plate) containing 1.25 μL of inhibitor or test compound in DMSO (or DMSO only in the case of controls) were added 25 μL of ATP solution (ATP diluted to a concentration of 250 μM in assay buffer) and 25 μL of the above-described microtubule/KSP solution. The plates were incubated at RT for 2 hours. Following incubation, 65 μL of Biomol Green (a malachite green-based dye that detects the release of inorganic phosphate) with 0.015% Tween 20 was added to each well. The plates were incubated for an additional 15-20 minutes then the absorbance at 650 nm was determined using a Molecular Devices Spectrophotometer. The amount of absorbance at 650 nm corresponded to the amount of KSP activity in the samples. The IC50 of each inhibitor or test compound was then determined based on the decrease in absorbance at 650 nm at each concentration, via nonlinear regression using either XLFit for Excel or Prism data analysis software by GraphPad Software Inc.

Sequence of motor domain of human KSP (Eg 5, KNSL1) (P52732 18-359): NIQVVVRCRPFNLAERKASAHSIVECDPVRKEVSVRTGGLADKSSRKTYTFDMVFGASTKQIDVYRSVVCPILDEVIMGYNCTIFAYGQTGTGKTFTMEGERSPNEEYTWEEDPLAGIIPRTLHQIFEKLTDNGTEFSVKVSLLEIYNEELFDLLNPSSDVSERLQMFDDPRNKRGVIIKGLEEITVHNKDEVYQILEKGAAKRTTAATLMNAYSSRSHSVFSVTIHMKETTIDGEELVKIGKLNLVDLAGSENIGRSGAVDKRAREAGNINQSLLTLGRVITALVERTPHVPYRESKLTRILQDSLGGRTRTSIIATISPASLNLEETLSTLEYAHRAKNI

IC50	Structure (SMILES)
0.96 nM	CC(C)(C)[C@H](c1nc(-c2cc(F)ccc2F)nn1Cc1ccccc1)N(CC1CNC[C@@H]1F)C(=O)C1CCCO1 (stereo in doubt) [Compound 1, (S)—N—((R)-1-(1-benzyl-3-(2,5-difluorophenyl)-1H-1,2,4-triazol-5-yl)-2,2-dimethylpropyl)-N-(((3R,4R)-4-fluoropyrrolidin-3-yl)methyl)tetrahydrofuran-2-carboxamide]
0.74 nM	C[C@@H]1CN(C(=O)N(C[C@@H]2CNC[C@@H]2F)[C@@H](c2nc(-c3cc(F)ccc3F)nn2Cc2cccc(F)c2)C(C)(C)C)C[C@H](C)O1 (stereo in doubt) [Compound 3, N—((R)-1-(3-(2,5-difluorophenyl)-1-(3-fluorobenzyl)-1H-1,2,4-triazol-5-yl)-2,2-dimethylpropyl)-N-(((3R,4R)-4-fluoropyrrolidin-3-yl)methyl)-2,6-dimethylmorpholine-4-carboxamide]
1.46 nM	CC(C)(C)C(c1nc(-c2cc(F)ccc2F)nn1Cc1cccc(F)c1)N(CC1CNC[C@@H]1F)C(=O)C1CCCO1 (stereo in doubt) [Compound 5, (S)—N—((R)-1-(3-(2,5-difluorophenyl)-1-(3-fluorobenzyl)-1H-1,2,4-triazol-5-yl)-2,2-dimethylpropyl)-N-(((3R,4R)-4-fluoropyrrolidin-3-yl)methyl)tetrahydrofuran-2-carboxamide]
0.6 nM	C[C@H](O)C(=O)N(CC1CNC[C@@H]1F)[C@@H](c1nc(-c2cc(F)ccc2F)nn1Cc1ccccc1)C(C)(C)C (stereo in doubt) [Compound 4, (S)—N—((R)-1-(1-benzyl-3-(2,5-difluorophenyl)-1H-1,2,4-triazol-5-yl)-2,2-dimethylpropyl)-N-(((3R,4R)-4-fluoropyrrolidin-3-yl)methyl)-2-hydroxypropanamide]
0.83 nM	C[C@H](O)C(=O)N(CC1CNC[C@@H]1F)[C@@H](c1nc(-c2cc(F)ccc2F)nn1Cc1cccc(F)c1)C(C)(C)C (stereo in doubt) [Compound 6, (S)—N—((R)-1-(3-(2,5-difluorophenyl)-1-(3-fluorobenzyl)-1H-1,2,4-triazol-5-yl)-2,2-dimethylpropyl)-N-(((3R,4R)-4-fluoropyrrolidin-3-yl)methyl)-2-hydroxypropanamide]
0.83 nM	C[C@@H]1CN(C(=O)N(C[C@@H]2CNC[C@@H]2F)[C@@H](c2nc(-c3cc(F)ccc3F)nn2Cc2ccccc2)C(C)(C)C)C[C@H](C)O1 (stereo in doubt) [Compound 2, N—((R)-1-(1-benzyl-3-(2,5-difluorophenyl)-1H-1,2,4-triazol-5-yl)-2,2-dimethylpropyl)-N-(((3R,4R)-4-fluoropyrrolidin-3-yl)methyl)-2,6-dimethylmorpholine-4-carboxamide]

same assay, conditions: KSP motor domain 3 nM, bovine brain microtubules 50 μg/mL, 2 hours at RT, absorbance at 650 nm; read-out: KSP IC50

IC50	Structure (SMILES)
1.23 nM	COC(C)(C)[C@H](c1nc(-c2cc(F)ccc2F)nn1Cc1cccc(F)c1)N(CC[C@H](N)CF)C(=O)[C@@H]1CCCO1 [Compound 7]
49.4 nM	CCN1C[C@@H](CN(C(=O)[C@@H]2CCCO2)[C@@H](c2nc(-c3cc(F)ccc3F)nn2Cc2cccc(F)c2)C(C)(C)OC)[C@@H](F)C1 [Compound 9]
0.87 nM	COC(C)(C)[C@H](c1nc(-c2cc(F)ccc2F)nn1Cc1cccc(F)c1)N(C[C@@H]1CNC[C@@H]1F)C(=O)[C@H](C)O [Compound 12]
0.69 nM	COC(C)(C)[C@H](c1nc(-c2cc(F)ccc2F)nn1Cc1ccccc1)N(C[C@@H]1CNC[C@@H]1F)C(=O)[C@@H]1CCCO1 [Compound 13]
1.4 nM	COC(C)(C)[C@H](c1nc(-c2cc(F)ccc2F)nn1Cc1ccccc1)N(CC[C@H](N)CF)C(=O)[C@@H]1CCCO1 [Compound 11]
1.49 nM	COC(C)(C)[C@H](c1nc(-c2cc(F)ccc2F)nn1Cc1cccc(F)c1)N(CC[C@H](N)CF)C(=O)[C@H](C)O [Compound 8]
0.9 nM	COC(C)(C)[C@H](c1nc(-c2cc(F)ccc2F)nn1Cc1cccc(F)c1)N(C[C@@H]1CNC[C@@H]1F)C(=O)[C@@H]1CCCO1 [Compound 10]
2.34 nM	COC(C)(C)[C@H](c1nc(-c2cc(F)ccc2F)nn1Cc1ccccc1)N(CC[C@H](N)CF)C(=O)[C@H](C)O [Compound 14]
